Measurements as given in ChEMBL document CHEMBL1201862, “PubChem BioAssay data set” (2004).
The source made the active and inactive calls.

Key:
[1] = biological target: Voltage-dependent T-type calcium channel subunit alpha-1H (Homo sapiens, UniProt O95180); type: functional;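 note: channel activity triggered by adding a high calcium stimulation buffer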
[2] = biological target: T1, Short transient receptor potential channel 4 (Mus musculus, UniProt Q9QUQ5); assay: mouse TRPC4 channel inhibitors, dose response, cell-based, HEK293 TRPC4/mu-opioid, Fluo-4 calcium (AID 434942); type: functional;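 note: potency of inhibitors blocking the TRPC4 calcium response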
T1 sequence (Q9QUQ5 whole entry): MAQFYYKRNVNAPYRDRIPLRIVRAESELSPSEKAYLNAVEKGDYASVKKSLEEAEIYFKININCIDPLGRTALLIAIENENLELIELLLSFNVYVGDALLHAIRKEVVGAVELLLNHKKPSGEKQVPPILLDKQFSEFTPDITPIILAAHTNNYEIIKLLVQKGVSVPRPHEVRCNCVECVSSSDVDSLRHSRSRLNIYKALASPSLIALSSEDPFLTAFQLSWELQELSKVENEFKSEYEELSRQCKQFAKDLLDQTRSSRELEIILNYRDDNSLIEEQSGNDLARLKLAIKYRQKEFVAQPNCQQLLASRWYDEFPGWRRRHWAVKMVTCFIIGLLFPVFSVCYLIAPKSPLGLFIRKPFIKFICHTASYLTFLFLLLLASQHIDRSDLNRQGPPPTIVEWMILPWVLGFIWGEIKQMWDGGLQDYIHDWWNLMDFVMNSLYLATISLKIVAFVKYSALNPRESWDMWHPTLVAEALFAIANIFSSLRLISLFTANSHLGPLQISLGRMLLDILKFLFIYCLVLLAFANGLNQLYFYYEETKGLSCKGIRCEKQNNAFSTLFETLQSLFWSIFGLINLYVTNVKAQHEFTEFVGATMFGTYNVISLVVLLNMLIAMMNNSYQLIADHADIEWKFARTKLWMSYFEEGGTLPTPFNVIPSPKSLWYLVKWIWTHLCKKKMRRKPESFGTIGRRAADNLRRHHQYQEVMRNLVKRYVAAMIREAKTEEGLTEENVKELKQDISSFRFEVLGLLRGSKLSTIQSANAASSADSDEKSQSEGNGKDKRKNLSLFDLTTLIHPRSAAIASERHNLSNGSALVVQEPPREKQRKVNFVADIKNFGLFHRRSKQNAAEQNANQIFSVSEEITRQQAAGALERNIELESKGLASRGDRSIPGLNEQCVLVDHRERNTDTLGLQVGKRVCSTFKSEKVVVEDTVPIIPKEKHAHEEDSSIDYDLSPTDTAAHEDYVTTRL

[3] = biological target: T2, Carboxy-terminal domain RNA polymerase II polypeptide A small phosphatase 1 (Homo sapiens, UniProt Q9GZU7); assay: inhibitors of CTDSP1, concentration-response testing, biochemical assay, absorbance-based, actives from ultra-high-throughput screening (AID 540297); type: functional
T2 sequence (Q9GZU7 whole entry): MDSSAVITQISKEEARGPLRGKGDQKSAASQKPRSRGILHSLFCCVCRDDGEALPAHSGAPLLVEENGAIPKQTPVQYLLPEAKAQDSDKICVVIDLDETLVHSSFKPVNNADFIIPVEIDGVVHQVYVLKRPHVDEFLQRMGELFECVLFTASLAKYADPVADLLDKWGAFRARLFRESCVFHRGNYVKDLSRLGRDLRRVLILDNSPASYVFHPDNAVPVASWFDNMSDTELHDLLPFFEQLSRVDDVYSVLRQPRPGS

[4] = cells; type: functional
[5] = growth suppression of PTEN-null colon cells, dose response, cell-based, HCT116 PTEN knockout (AID 1047); type: functional;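 note: HCT116 colon tumor cells with PTEN knocked out; cells exposed to compound for 60 hours before readout; potency for loss of cell viability measured by luminescence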
[6] = biological target: T3, Calpain-2 catalytic subunit (Sus scrofa, UniProt P43367); assay: pig calpain II inhibitor potency, dose response, biochemical, fluorogenic peptide substrate (AID 1420); type: functional
T3 sequence (P43367 whole entry): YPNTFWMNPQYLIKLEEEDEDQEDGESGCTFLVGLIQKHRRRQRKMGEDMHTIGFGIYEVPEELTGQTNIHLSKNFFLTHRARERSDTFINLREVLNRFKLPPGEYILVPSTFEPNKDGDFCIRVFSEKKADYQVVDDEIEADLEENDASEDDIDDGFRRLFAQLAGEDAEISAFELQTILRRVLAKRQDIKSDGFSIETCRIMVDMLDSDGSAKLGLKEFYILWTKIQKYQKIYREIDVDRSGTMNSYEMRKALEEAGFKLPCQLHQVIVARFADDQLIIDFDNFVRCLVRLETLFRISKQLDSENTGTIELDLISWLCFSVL

[7] = growth suppression of beta-catenin-knockout colon cells, dose response, cell-based, HCT116, human colon tumor (AID 1045); type: functional;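 note: HCT116 colon tumor cells with beta catenin knocked out; cells exposed to compound for 60 hours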
[8] = HEp-2 cell cytotoxicity, dose response, cytotoxicity control for RSV inhibitor project, HTS (AID 2410); type: functional; settings: human respiratory syncytial virus
[9] = biological target: T4, Corticotropin-releasing factor receptor 2/Corticotropin-releasing factor-binding protein (Homo sapiens, UniProt P24387+Q13324); assay: Dose Response confirmation of uHTS hits for small molecule antagonists of the CRF-binding protein and CRF-R2 receptor complex.; type: functional; settings: read-out: IC50_Mean
T4 sequence (Q13324 whole entry): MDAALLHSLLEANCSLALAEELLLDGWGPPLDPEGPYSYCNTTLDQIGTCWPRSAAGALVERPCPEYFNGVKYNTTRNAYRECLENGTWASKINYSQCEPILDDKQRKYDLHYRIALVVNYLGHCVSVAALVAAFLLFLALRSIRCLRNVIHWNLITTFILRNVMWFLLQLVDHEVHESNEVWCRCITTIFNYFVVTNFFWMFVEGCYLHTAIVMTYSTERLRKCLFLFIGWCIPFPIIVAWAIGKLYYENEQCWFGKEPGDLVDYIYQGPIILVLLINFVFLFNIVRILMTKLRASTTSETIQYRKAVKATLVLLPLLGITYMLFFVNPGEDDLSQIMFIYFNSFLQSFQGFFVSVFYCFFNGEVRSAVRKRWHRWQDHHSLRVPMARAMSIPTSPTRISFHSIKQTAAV
T4 sequence (P24387 whole entry): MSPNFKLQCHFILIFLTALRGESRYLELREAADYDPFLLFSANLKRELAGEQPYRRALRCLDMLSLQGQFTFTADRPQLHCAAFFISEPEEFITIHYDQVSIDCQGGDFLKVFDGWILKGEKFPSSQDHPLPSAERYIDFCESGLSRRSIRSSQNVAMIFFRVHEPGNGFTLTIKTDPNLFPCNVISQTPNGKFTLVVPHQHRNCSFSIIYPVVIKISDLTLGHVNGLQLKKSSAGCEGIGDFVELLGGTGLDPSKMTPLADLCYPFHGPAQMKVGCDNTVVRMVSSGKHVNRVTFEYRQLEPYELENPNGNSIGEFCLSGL

[10] = Luminescence Cell-Based Dose Response HTS to Identify Inhibitors of 5'UTR Stem-Loop Driven Prion Protein mRNA Translation in H4 Neuroglioblastoma Cells. [Related pubchem assays: 1827 (Project Summary), 1813 (Primary HTS)]; type: functional
[11] = inhibitors of firefly luciferase expression or activity, dose response, H4 neuroglioma cells, luminescence (AID 1990); type: functional, cell-based
[12] = inhibitors of SNCA 5'UTR-driven reporter translation, confirmation, H4 neuroglioma cells, luminescence (AID 1988); type: functional, cell-based
[13] = biological target: T4, Corticotropin-releasing factor receptor 2/Corticotropin-releasing factor-binding protein; assay: activators of CRF receptor 2 with binding protein – uHTS hits, confirmation (AID 602473); type: functional; settings: read-out: EC50_Mean
[14] = cells; type: functional, cell-based
[15] = cells; type: functional, cell-based; remark: listed apart in the source
[16] = ZM109 Env clade C HIV-1 fusion inhibitors, dose response, HeLa effector, CEM target cells, luciferase, cherry-pick (AID 652058); type: functional, cell-based
[17] = inhibitors of intracellular T. cruzi replication, confirmation, NIH3T3 host cells, beta-gal luminescence (AID 2044); type: functional, cell-based;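 note: intracellular parasites grown in NIH/3T3 mouse fibroblasts as host cells; luminescent beta-galactosidase reporter signal from transgenic T. cruzi replicating inside host cells; inhibitors lower the luminescence signal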
[18] = cytotoxicity toward NIH3T3 fibroblasts, dose response, counter-screen, cell-based, ATP luminescence, mouse fibroblasts (AID 2010); type: functional;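 note: cells exposed to compound for about 90 hours before reading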
[19] = tested on: Streptococcus sp. 'group A'; assay: growth inhibition of control SK(-) GAS strain, dose response, counter-screen for streptokinase expression inhibitor project, luminescence, kanamycin, BacTiterGlo, confirmation (AID 1900); type: functional, organism-based
[20] = Luminescence Cell-Based Dose Retest to Confirm Inhibitors of Cancer Stem Cells. [Related pubchem assays (depositor defined):AID2717, AID2721]; type: functional; settings: Homo sapiens
[21] = tested on: Streptococcus; assay: Group A Streptococcus viability loss, dose response, counter-screen for streptokinase expression inhibitor project, luminescence, BacTiterGlo (AID 1915); type: functional, organism-based;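 note: potency for reduction of bacterial viability or growth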
[22] = NIH-3T3 fibroblast cytotoxicity, dose response, cytotoxicity control, cell-based, fluorescence, Alamar Blue, secondary assay (AID 2327); type: functional;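 note: NIH-3T3 mouse fibroblasts cultured with fluconazole at 8 µg/mL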
[23] = C. albicans growth with fluconazole, confirmation, fluorescence, retest (AID 2467); type: functional, cell-based

Chain of Voltage-dependent T-type calcium channel subunit alpha-1H (O95180 whole entry): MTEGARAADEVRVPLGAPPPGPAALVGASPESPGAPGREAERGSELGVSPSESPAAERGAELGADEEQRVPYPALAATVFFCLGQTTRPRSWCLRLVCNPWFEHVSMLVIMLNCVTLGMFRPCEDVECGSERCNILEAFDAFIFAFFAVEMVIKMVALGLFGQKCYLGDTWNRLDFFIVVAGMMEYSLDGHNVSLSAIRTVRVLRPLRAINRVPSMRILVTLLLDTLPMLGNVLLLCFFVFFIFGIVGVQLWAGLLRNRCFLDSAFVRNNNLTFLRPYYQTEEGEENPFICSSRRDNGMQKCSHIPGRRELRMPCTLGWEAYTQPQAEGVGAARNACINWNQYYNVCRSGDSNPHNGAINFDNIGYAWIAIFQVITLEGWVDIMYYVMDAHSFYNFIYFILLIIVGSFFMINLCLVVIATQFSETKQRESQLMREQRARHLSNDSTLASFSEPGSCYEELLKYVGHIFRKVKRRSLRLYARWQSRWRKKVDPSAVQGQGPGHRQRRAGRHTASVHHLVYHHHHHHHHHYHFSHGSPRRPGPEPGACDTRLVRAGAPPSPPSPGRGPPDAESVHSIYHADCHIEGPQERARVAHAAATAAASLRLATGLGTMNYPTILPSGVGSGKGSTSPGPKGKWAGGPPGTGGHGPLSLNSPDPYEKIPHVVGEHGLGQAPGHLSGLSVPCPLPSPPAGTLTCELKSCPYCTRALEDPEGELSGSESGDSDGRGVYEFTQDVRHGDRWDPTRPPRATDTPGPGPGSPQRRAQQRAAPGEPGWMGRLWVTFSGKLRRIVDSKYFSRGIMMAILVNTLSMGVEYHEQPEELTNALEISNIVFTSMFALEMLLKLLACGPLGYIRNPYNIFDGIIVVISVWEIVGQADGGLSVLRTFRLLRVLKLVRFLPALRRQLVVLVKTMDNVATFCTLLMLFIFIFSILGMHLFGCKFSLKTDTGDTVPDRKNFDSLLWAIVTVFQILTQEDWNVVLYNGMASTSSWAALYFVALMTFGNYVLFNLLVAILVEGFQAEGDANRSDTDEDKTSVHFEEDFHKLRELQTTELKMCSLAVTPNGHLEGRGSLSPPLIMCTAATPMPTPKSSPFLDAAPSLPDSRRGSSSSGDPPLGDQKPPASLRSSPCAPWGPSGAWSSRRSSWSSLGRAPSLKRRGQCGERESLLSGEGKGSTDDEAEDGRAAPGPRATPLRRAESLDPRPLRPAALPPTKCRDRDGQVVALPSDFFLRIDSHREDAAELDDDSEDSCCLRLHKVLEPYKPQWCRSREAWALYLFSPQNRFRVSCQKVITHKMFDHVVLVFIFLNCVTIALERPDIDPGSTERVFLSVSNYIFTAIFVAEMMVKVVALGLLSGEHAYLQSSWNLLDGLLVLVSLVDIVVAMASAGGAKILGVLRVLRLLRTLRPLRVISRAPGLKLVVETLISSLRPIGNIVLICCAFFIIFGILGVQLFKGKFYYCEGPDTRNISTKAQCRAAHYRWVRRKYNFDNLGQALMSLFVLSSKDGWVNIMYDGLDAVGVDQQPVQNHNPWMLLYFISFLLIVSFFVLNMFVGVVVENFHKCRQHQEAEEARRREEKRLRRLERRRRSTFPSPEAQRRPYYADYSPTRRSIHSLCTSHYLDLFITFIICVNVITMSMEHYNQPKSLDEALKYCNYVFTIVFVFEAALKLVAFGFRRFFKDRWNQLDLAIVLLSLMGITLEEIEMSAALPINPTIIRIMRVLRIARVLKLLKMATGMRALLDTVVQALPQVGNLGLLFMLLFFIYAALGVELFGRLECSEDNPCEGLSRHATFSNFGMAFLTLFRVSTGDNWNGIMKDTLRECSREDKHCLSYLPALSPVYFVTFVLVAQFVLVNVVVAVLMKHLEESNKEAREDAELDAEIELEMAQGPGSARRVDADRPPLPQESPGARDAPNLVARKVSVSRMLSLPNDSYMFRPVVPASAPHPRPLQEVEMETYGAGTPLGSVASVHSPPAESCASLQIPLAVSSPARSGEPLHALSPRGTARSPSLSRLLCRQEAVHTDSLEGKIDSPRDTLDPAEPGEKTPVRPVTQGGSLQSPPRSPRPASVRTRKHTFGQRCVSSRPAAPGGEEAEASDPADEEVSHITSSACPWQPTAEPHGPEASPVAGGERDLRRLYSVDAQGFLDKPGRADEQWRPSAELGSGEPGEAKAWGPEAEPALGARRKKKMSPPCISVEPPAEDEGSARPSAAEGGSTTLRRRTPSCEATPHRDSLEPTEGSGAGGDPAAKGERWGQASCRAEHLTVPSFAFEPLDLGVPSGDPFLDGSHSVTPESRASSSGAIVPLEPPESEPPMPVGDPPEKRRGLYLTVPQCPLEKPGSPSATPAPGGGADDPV

c1ccc(-c2noc(CSc3nnc(Cc4cccs4)n3-c3ccccc3)n2)cc1
EC50 [1]: 4.16 µM (active)

Cc1ncsc1CCOC(=O)C12CC3CC(CC(C3)C1)C2
EC50 [2]: 5.31 µM (active)

Cc1ccc(NC(=O)c2cc(-c3ccc(C)c(C)c3O)n[nH]2)cc1C
IC50 [3]: 8.08 µM (active)

COc1ccc(O)c(C(=O)c2cnc3c(c2)c(=O)[nH]c(=O)n3C)c1
EC50 [2]: 1.5 µM (active)

O=C(c1cc2sccc2n1Cc1ccccc1)N1CCCc2ccccc21
EC50 [1]: 5.98 µM (active)

O=C(OCCCCN1C(=O)c2ccccc2C1=O)c1ccc(Br)o1
IC50 [4]: 46.8 µM (active)

Cc1ccccc1Cn1c(=O)n(CC2CCC(C(=O)NCCc3ccccc3)CC2)c(=O)c2ccccc21 (centres undefined)
EC50 [5]: 13.3 µM (active) | IC50 [6]: 20.7 µM (not active) | EC50 [7]: 17 µM (active)

CC1CC(C)CN(C(=O)Cn2c(=O)n(CCCCC(=O)NCc3ccco3)c(=O)c3ccccc32)C1 (centres undefined)
IC50 [6]: > 50 µM (not active)

CCCc1nc2ccccc2n1CCOc1ccccc1
EC50 [1]: 8.61 µM (active)

COc1cccc(Nc2nc(N)c([N+](=O)[O-])c(NCc3ccco3)n2)c1
CC50 [8]: 15.8 µM (active) | IC50 [6]: 7.89 µM (not active)

CCN(CC)CCOC(=O)C(Cc1ccco1)Cc1cccc2ccccc12 (centres undefined)
IC50 [9]: > 47.1 µM (inactive) | EC50 [10]: > 120 µM (not active) | EC50 [11]: > 120 µM (not active) | EC50 [12]: > 120 µM (not active) | EC50 [13]: > 53 µM (inactive) | EC50 [14]: > 350 µM (not active) | EC50 [15]: > 350 µM (not active)

C#CCSc1nnc(-c2ccc([N+](=O)[O-])cc2)o1
IC50 [4]: 9.4 µM (active)

Cc1cc(=O)oc2cc(NC(=O)c3ccc(OC(F)F)cc3)ccc12
IC50 [3]: 10.2 µM (active)

O=C(Nc1nc2ccccc2n1CCN1CCCC1)c1ccc(Cl)cc1
IC50 [4]: 25.4 µM (active)

O=C(OCCCOC(=O)c1ccc([N+](=O)[O-])o1)c1ccc([N+](=O)[O-])o1
IC50 [4]: < 0.1 µM (active)

Cn1nnnc1SCCNCc1ccccc1OCc1ccc(Cl)cc1
EC50 [2]: 1.33 µM (active)

N#CC(c1cccc(C(F)(F)F)c1)(c1ncc(C(F)(F)F)cc1Cl)N1CCOCC1 (centres undefined)
EC50 [1]: 2.49 µM (active)

O=C(CN1CCCCCCC1)Nc1ccc(Cl)cc1Cl
IC50 [6]: 4.92 µM (not active)

Cc1cc(OCc2cc(C(=O)NCC3(C)COC3)no2)cc(C)c1Cl
EC50 [2]: 2.37 µM (active)

Cc1ccc2c(c1)N(C(=O)CCC(=O)Nc1ccccc1Br)CC(C)O2 (centres undefined)
EC50 [2]: 1.68 µM (active)

COc1ccc(C(=O)OCC(=O)NCc2ccco2)cc1OC
IC50 [3]: 9.73 µM (active)

Cc1cc(Br)c(NC(=O)CN(C)CCOc2ccccc2)c(Br)c1
EC50 [2]: 5.96 µM (active)

C=CCOc1ccc(Br)cc1CNC(C)(C)CO
EC50 [2]: 3.76 µM (active)

CN1/C(=C\C(=O)COC(=O)C2COc3ccccc3O2)C(C)(C)c2ccccc21 (centres undefined)
IC50 [4]: 48.2 µM (active)

CCOc1cc(CNCc2cccs2)ccc1OCC(=O)NC(C)(C)C
EC50 [2]: 2.11 µM (active)

CCc1ccc(NC(=O)C(=O)NNC(=O)COc2cccc(OC)c2)cc1
IC50 [4]: 5.58 µM (active)

O=C(C[C@H]1C[C@@H]2c3cc(NC(=O)Nc4ccc(F)cc4)ccc3O[C@@H]2[C@@H](CO)O1)NCC1CC1
AC50 [16]: 41.4 µM (active)

Cc1[nH]n(S(=O)(=O)Cc2ccccc2)c(=O)c1N=Nc1ccccc1Cl
IC50 [4]: 8.42 µM (active)

Cc1cc(SCC(=O)N/N=C/c2ccc(O)cc2O)c(C)cc1Br
EC50 [17]: 0.687 µM (active) | EC50 [10]: 9.19 µM (active) | EC50 [11]: 5.85 µM (active) | EC50 [18]: > 60 µM (inconclusive) | EC50 [12]: 5.74 µM (active) | EC50 [19]: 2.46 µM (active) | AC50 [20]: 4.49 µM (active) | EC50 [14]: 13.4 µM (active) | EC50 [21]: 2.57 µM (active) | EC50 [15]: > 350 µM (not active) | EC50 [22]: > 160 µM (inactive) | EC50 [23]: 3.06 µM (active)
